Where two headings read alike, the source gives them in different places.
Columns and labels:
[1] = test system: formation of PAR in MDA-MB-231-BR cellular extracts; experiment: PAR levels in cellular extracts (HT PARP in vivo Pharmacodynamic Assay II); type: cell-based, human; conditions: data not shown
Experimental: Doxorubicin (NonL-doxo) and PEGylated liposomal doxorubicin (PLD, Doxil®) were both obtained from the University of North Carolina (UNC) Hospitals Pharmacy (Chapel Hill, NC). The poly-ADP-ribose polymerase (PARP) inhibitor, ABT-888, was synthesized by the Chemistry Center for Integrative Chemical Biology and Drug Discovery at UNC (Dr. S. Frye). ABT-888 was dissolved in PBS (phosphate-buffered saline, Life Technologies, Grand Island, NY). The molecular weight of pure ABT-888 is 244.29 g/mol, while the molecular weight of the salt form (which includes 2 HCl molecules) is 317.21 g/mol. All calculations were performed using the molecular weight of the salt form of ABT-888. The ability of ABT-888 to inhibit the formation of PAR was confirmed by measuring PAR levels in MDA-MB-231-BR cellular extracts using HT PARP in vivo Pharmacodynamic Assay II (Trevigen, Gaitherburg, MD, data not shown).

[2] = test system: MDA-MB-231-BR cells; experiment: Cell viability (MTS) assay, single agent and combination treatments; type: cell-based; conditions: Homo sapiens, read-out: IC50 (50% reduction in MTS dye conversion), 72 hours, single agent
Experimental: A mitochondrial dye conversion assay (Cell Titer 96® Aqueous One Solution Cell Proliferation Assay; Promega Corp., Madison, WI) was used to measure cell viability after treatment. This assay was conducted according to manufacturer's instructions, with modifications. […] Cell counting was performed with an automated cell counter. Cells were allowed to adhere overnight, and media was replaced with fresh media containing a range of drug doses. After the specified treatment period, 20 µl of tetrazolium compound inner salt (MTS) containing an electron coupling reagent, phenazine ethosulfate (PES) was added in each well and incubated at 37°C for 1 hour (h). The MTS absorbance was measured spectrophotometrically at 490 nm (minus background absorbance). All cytotoxic experiments were done in triplicate.
Drug combination interactions were analyzed using methods developed by Chou and Talalay.
CalcuSyn (BioSoft, Cambridge, UK) was used to estimate the IC50 for each drug and to determine the combination index, which is a measurement of the type of drug interactions. A combination index (CI) of 1 indicates an additive response, <1 indicates a synergistic response, and >1 indicates an antagonistic response.

[3] = test system: intracranial MDA-MB-231-BR luciferase-expressing tumors; experiment: Bioluminescence imaging of intracranial tumors; type: in vivo, Foxn1nu/nu mice
Experimental: All animals were anesthetized via inhalation with 2% vaporized isoflurane during the imaging process. Approximately 15 min prior to imaging, all inoculated mice received an intraperitoneal (IP) injection of D-Luciferin dissolved in PBS (150 mg/kg; Caliper Life Sciences, Hopkinton, MA). To confirm the presence or absence of intracranial tumor, mice were imaged using the IVIS Lumina camera (Caliper Life Sciences, Hopkinton, MA). Images were analyzed using Living Image 4.0 Software (Caliper Life Sciences, Hopkinton, MA). All values were recorded as photons/second and were corrected for the presence of background signal.
Treatment was ongoing until clinical symptoms necessitated sacrifice. […] Mice were weighed a minimum of three times/weekly and were monitored by optical imaging weekly until clinical symptoms (i.e. decreased response to stimuli, neurologic dysfunction, weight loss of 20% and/or a Body Composition Score of 2 or less) necessitated sacrifice.
The Kaplan-Meier method and Log-rank tests were used to evaluate and compare overall survival among treatment groups. […] For bioluminescence imaging, fold changes were calculated relative to the start date of treatment. If present, negative imaging values (due to correction for background) were recorded and set to zero. […]

[4] = test system: intracranial MDA-MB-231-BR human triple-negative breast cancer xenografts; experiment: Efficacy study: median survival in intracranial model of breast cancer; type: in vivo, Foxn1nu/nu mice; conditions: single agent, control 26 (25-28)
Experimental: Therapeutic studies and assessment for response were performed with the assistance of the Mouse Phase I Unit (MP1U). Female, Foxn1^nu/nu mice, approximately 20 grams and aged 8 weeks of age were bred in-house from animals purchased from Charles River Laboratories International, Inc. (Wilmington, MA; Stock #490) and were used for all studies. […] Cells were stereotactically-injected into the right caudate nucleus of the basal ganglia using a 27 gauge needle (from Bregma a:1.0mm, l:-2.0 mm, d:-4.0 mm) which remained in place for a period of 2 minutes (min) to minimize reflux through the needle track.
The Kaplan-Meier method and Log-rank tests were used to evaluate and compare overall survival among treatment groups. Unadjusted p-values are reported. For bioluminescence imaging, fold changes were calculated relative to the start date of treatment. […] For every time point where at least two animals were alive in the treatment group, the median level and interquartile range (25th–75th percentile) for bioluminescence imaging were calculated.

[5] = Pharmacokinetic study: sum total doxorubicin in plasma, brain tumor and brain by HPLC-FL; type: in vivo; conditions: 6 mg/kg IV x1; for AUC(0-inf): read-out: AUC0-∞ of sum total doxorubicin
Experimental: Group 1 (n = 23) received NonL-doxo administered over 10–15 seconds at 6 mg/kg IV ×1 via tail vein.
Approximately 1 mL of blood was collected via terminal cardiac puncture following deep anesthesia (ketamine 100 mg/kg IP ×1 and Domitor® 1 mg/kg IP ×1) using sodium heparin as an anticoagulant and centrifuged at 1,500 g for 5 minutes to collect plasma. Brain tumor, peri-tumoral brain and normal (contralateral, non-tumor) brain were collected from each mouse. Plasma, tumor, and tissues were placed in cryopreservation vials and preserved by snap freezing using liquid nitrogen. All samples were stored at −80°C until analysis.
Total tissue and tumor weight was recorded at time of collection. Whole tissue and tumors were snap frozen in liquid nitrogen and stored at −80°C until homogenized. To form tissue and tumor homogenates, the intact tissues and tumors were thawed and sectioned. The sections were weighed and diluted in a 1:3 ratio with phosphate buffered saline (PBS) solution. Finally, these mixtures were homogenized by placing zirconium oxide beads (15 small and 2 large; Omni International Inc, Kennesaw, GA) into 2 mL tubes at […] using a Precellys 24 homogenizer (Omni International Inc, Kennesaw, GA) twice for 15 sec each with a 5 sec wait between each run.
Samples were further processed for the analytical studies using protein precipitation with acetonitrile. An 800 µL of extraction solution containing internal standard (acetonitrile with 100 ng/mL daunorubicin) was added to 200 µL of plasma, tumor or tissue homogenate into a 2 mL microcentrifuge tube. The samples were vortexed for 10 min and centrifuged at 10,000×g for 10 min at 4°C. […] The samples were then vortexed, transferred into auto-sampler vials and analyzed by high-performance liquid chromatography (HPLC) using fluorescence (FL) detection (excitation wavelength: 490 nm/ emission wavelength: 590 nm). The HPLC-FL method to measure sum total (encapsulated and released) doxorubicin in plasma, tumor, and tissues was modified from previous studies, [23], [24].
The area under the concentration versus time curve from 0 to ∞ (AUC0–∞) was calculated using the linear up/log down rule. The plasma volume of distribution (Vd), clearance (CL), and half-life (t1/2) were calculated using standard equations. The maximum concentration (Cmax) and time of Cmax (tmax) were determined by visual inspection of the concentration versus time data.

[6] = female, athymic nude (nu/nu), mouse, brain tumor
[7] = female, athymic nude (nu/nu), mouse, normal brain
[8] = female, athymic nude (nu/nu), mouse, peri-tumoral brain
[9] = female, athymic nude (nu/nu), mouse, plasma

## C[C@]1(c2nc3c(C(N)=O)cccc3[nH]2)CCCN1 [ABT-888]
[1]
  ability to inhibit the formation of PAR: confirmed
[2]
  IC50: 277 µM
[3]; ABT-888 25 mg/kg/day OG, 4 weeks post-treatment, control 87.8 at 3 weeks
  highest median fold change from baseline in bioluminescence: 41.8
[4]; ABT-888 25 mg/kg/day oral gavage, 25 mg/kg/day
  Median Survival and 95% CI: 27 (24 – 31) days

## COc1cccc2c1C(=O)c1c(O)c3c(c(O)c1C2=O)C[C@@](O)(C(=O)CO)C[C@@H]3O[C@H]1C[C@H](N)[C@H](O)[C@H](C)O1 [NonL-doxo, Doxorubicin]
[2]
  IC50: 0.242 µM
[5]; brain tumor
  time after which sum total doxorubicin was undetectable: 24 h
[5]; [6]
  Cmax: 570 ng/mL
  Tmax: 6 h
  AUC(0-inf): 12100 ng·h/mL
[5]; female, athymic nude (nu/nu), mouse, normal (contralateral, non-tumor) brain
  AUC(0-inf): 326 ng·h/mL
[5]; [7]
  Cmax: 92 ng/mL
  Tmax: 1 h
[5]; [8]
  Cmax: 32 ng/mL
  Tmax: 3 h
  AUC(0-inf): 283 ng·h/mL
[5]; [9]
  Cmax: 831 ng/mL
  Tmax: 0.083 h
  Vd: 56.2 L/kg
[5]; female, athymic nude (nu/nu), mouse, plasma, noncompartmental
  AUC(0-inf): 1540 ng·h/mL
[5]; female, athymic nude (nu/nu), mouse, plasma, read-out: CL of sum total doxorubicin (converted)
  clearance: 64.7 mL/min/kg
[5]; female, athymic nude (nu/nu), mouse, plasma, read-out: t1/2 of sum total doxorubicin (converted)
  half-life: 600 min
[5]; normal (contralateral, non-tumor) brain
  time after which sum total doxorubicin was undetectable: 3 h
[5]; peri-tumoral brain
  time after which sum total doxorubicin was undetectable: 6 h
[5]; plasma
  time after which sum total doxorubicin was undetectable: 24 h
[3]; 6 mg/kg IV weekly single agent, 3 weeks post-treatment
  highest median fold-change in bioluminescence: 4.6
[4]; 6 mg/kg IV weekly, from intracranial cell injection
  Median Survival and 95% CI: 23.5 (18 – 28) days

Reference: article PMC3641071, “Pharmacokinetics and Efficacy of PEGylated Liposomal Doxorubicin in an Intracranial Model of Breast Cancer” (PLoS ONE, 2013)
